Data on 3 compounds can be found in US20030139433A1, “Method for the treatment of overactive bladder” (priority 2000, published 2003).

Data set [1] has as its system overactive bladder. Particulars: OAB patients; cited from earlier work.
For data set [2], the target named is T1, NK2 receptor of rabbit pulmonary artery (Oryctolagus cuniculus, UniProt P79218).
T1 construct: The left and right branches of the pulmonary artery were obtained from each animal; from tissue; host or cells: rabbit pulmonary artery rings, endothelium removed
T1 sequence (P79218 1-384): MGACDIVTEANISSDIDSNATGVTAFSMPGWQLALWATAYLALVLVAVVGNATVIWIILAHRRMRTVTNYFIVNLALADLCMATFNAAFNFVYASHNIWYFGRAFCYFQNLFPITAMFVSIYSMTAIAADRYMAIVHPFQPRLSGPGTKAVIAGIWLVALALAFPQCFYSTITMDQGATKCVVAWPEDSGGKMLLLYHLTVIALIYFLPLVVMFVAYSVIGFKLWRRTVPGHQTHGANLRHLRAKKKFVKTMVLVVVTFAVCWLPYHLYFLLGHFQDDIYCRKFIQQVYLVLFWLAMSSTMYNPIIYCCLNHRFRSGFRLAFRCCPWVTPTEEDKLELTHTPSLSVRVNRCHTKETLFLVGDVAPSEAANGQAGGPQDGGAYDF
The data set is described as follows: Inhibition of NK2 receptor-mediated contraction of rabbit pulmonary artery (agonist BANK). The conditions noted are these: endothelium removed, read-out: -log molar KB (converted). The protocol:
Inhibition of NK2 Receptor-Mediated Contraction of Rabbit Pulmonary Artery:
Male New Zealand white rabbits were administered a lethal injection of Nembutal, (60 mg/kg) into a cannulated ear vein. Heparin, 0.0025 mL/kg of a 1000 U/ml solution, was injected into the ear vein prior to Nembutal in order to decrease blood coagulation. The left and right branches of the pulmonary artery were obtained from each animal. The segments, with or without endothelium, were suspended as rings in water-jacketed tissue baths maintained at 37° C. containing physiological salt solution of the following composition (mM): NaCl (119.0); KCl (4.6); CaCl2 (1.8); MgCl2 (0.5); NaH2PO4 (1.0); NaHCO3 (25.0); glucose (11.0); and gassed continuously with 95% O2-5% CO2. […] Changes in tension were measured on a Grass polygraph via Grass FT-03 force transducers.
(§1) To study NK2-mediated contraction, the vascular endothelium was removed and beta-Ala^8-NKA (“BANK”) was used as agonist. […] The response to each concentration of ASMSP was expressed as a percentage of the total relaxation induced by papaverine. […] Apparent KB values for the compound were calculated using the standard equation: KB=[antagonist]/(dose ratio−1), where dose ratio was equal to antilog [(−log molar EC50 without antagonist)−(−log molar EC50 with antagonist)]. The resulting KB values are expressed as −log molar KB.

The target of data set [3] is T2, NK1 receptors (Homo sapiens, UniProt P25103).
T2 construct: from tissue; host or cells: unnamed tissue preparation selective for NK1 receptors
T2 sequence (P25103 whole entry): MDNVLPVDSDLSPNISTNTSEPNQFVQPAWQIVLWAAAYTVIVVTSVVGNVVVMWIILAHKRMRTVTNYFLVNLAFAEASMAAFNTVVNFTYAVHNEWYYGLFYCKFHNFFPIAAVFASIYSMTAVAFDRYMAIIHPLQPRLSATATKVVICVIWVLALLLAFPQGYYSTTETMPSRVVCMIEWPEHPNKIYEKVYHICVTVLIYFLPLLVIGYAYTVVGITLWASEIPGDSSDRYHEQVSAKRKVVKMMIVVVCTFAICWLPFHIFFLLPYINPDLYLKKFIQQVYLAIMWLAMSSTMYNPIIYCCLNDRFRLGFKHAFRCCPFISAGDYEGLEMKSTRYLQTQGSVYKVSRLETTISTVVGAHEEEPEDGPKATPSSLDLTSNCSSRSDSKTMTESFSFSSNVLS
The data set is described as follows: Inhibition of binding of a tritiated derivative of SP in a tissue preparation selective for NK1 receptors. Particulars: read-out: concentration at which 50% inhibition of binding of SP was achieved. An excerpt: The specificity of inhibition by the Compound was shown by inhibiting the binding of tritiated NKA at the NK2 receptor compared to inhibition of binding of a tritiated derivative of SP in a tissue preparation selective for NK1 receptors.

Data set [4] deals with BANK-induced bladder contraction. The data set is described as follows: In vivo bladder contraction inhibition in rats (BANK-induced). On the set-up: species or system rat.
Data set [5] has as its system BANK-induced dyspnea. The data set is described as follows: BANK-induced dyspnea in conscious guinea pigs. The conditions noted are these: for ED50: Cavia porcellus. Format: in vivo, guinea pig. The protocol:
Dyspnea (labored abdominal breathing) was induced in conscious guinea pigs by aerosol administration of BANK, as previously described (Kusner, et al. Euro. J. Pharmacol. 210:299-306,1992). All animals were pretreated with atropine, 10 mg/kg ip 45 minutes; indomethacin, 10 mg/kg ip 30 minutes; propranolol, 5 mg/kg ip 30 minutes; and thiorphan, 1 mg/ml aerosol for 5 minutes duration, starting 15 minutes prior to challenge in order to block muscarinic receptors, cyclooxygenase, beta-adrenergic receptors, and neutral endopeptidase (EC 3.4.24.11), respectively. Animals were pretreated with Compound or vehicle at appropriate times before challenge with aerosolized BANK for 780 seconds. BANK was administered to six animals simultaneously by being aerosolized with a DeVilbiss ultrasonic nebulizer into an air stream flowing into a Plexiglas chamber at a rate of 2 liter/min. The time required for dyspnea to occur was recorded for each animal. […] Vehicle pretreated control animals were included in each experiment. Results are reported in % protection values where: [formula]

Data set [6] has as its target T3, NK2 receptor, human bronchus (Homo sapiens, UniProt P21452).
T3 construct: from tissue; host or cells: human bronchus
T3 sequence (P21452 1-398): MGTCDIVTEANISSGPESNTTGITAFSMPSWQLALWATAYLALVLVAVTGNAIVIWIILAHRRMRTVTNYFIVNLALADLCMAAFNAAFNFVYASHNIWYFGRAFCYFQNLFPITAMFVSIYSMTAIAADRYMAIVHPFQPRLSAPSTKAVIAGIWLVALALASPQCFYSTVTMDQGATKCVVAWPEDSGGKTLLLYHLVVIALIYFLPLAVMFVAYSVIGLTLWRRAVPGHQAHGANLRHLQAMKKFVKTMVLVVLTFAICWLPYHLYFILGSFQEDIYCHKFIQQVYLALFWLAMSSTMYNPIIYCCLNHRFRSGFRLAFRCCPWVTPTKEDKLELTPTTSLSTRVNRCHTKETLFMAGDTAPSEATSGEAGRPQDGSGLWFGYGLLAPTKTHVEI
The data set is described as follows: NK2 receptor antagonism in human bronchus. The conditions noted are these: read-out: -log molar KB (converted).

Data set [7] relates to NK1 receptor. The data set is described as follows: NK1 receptor-mediated relaxation of rabbit pulmonary artery induced by ASMSP. The protocol:
Male New Zealand white rabbits were administered a lethal injection of Nembutal, (60 mg/kg) into a cannulated ear vein. Heparin, 0.0025 mL/kg of a 1000 U/ml solution, was injected into the ear vein prior to Nembutal in order to decrease blood coagulation. The left and right branches of the pulmonary artery were obtained from each animal. The segments, with or without endothelium, were suspended as rings in water-jacketed tissue baths maintained at 37° C. containing physiological salt solution of the following composition (mM): NaCl (119.0); KCl (4.6); CaCl2 (1.8); MgCl2 (0.5); NaH2PO4 (1.0); NaHCO3 (25.0); glucose (11.0); and gassed continuously with 95% O2-5% CO2. Initial tension placed on each tissue was 2 gm, which was maintained throughout a 0.5 hour equilibration period. Changes in tension were measured on a Grass polygraph via Grass FT-03 force transducers.
as §1

Data set [8] can be described thus: Side-effects in laboratory test animals. The format is in vivo. The conditions noted are these: several multiples of the minimum effective dose.
The target of data set [9] is T4, human NK2 receptor (Homo sapiens, UniProt P21452).
T4 construct: expressed in transfected cells; host or cells: Mouse Erythroleukemia (MEL) cells, membrane preparation (MELM)
T4 sequence (P21452 1-398): T3 sequence (P21452 1-398)
The data set is described as follows: Neurokinin receptor binding assay, 3H-NKA binding to MEL cell membranes. The conditions noted are these: tritiated NKA; read-out: Ki, concentration at which 50% inhibition of binding of NKA was achieved.

Data set [10] relates to BANK-induced bronchoconstriction. The data set is described as follows: Pulmonary mechanics in anesthetized guinea pigs, BANK-induced bronchoconstriction. Format: in vivo, guinea pig.

Structures are written as SMILES. Where “and” joins values, the source holds several entries; their conditions need not be identical. Equal entries are not always repeated.

A word on the ED50: it is the midpoint of the dose-response relation.

Regarding `CCN(CC)CC#CCOC(=O)C(O)(c1ccccc1)C1CCCCC1` (stereo not drawn) [oxybutinin], the “adverse effects (primarily dry mouth), share of the patient population” value in data set [1] is given as “approximately 78%”.
On to `CN(C[C@@H](CCN1CCC(N2CCCNC2=O)CC1)c1ccc(Cl)c(Cl)c1)C(=O)c1ccccc1` [the Compound, (S)-N-[2-(3,4-dichlorophenyl)-4-[4-(2-oxoperhydropyrimidin-1-yl)piperidino]butyl]-N-methylbenzamide], for which the Kb in data set [2] is 0.891 nM; in [6], 2.4 nM. Further, in [3], the IC50 worked out at 187 nM. Besides, the maximum efficacy entry was “approximately 100%” in data set [4] ([…] (1.8 mg/kg) against intravenous BANK (3 nmol/kg)) and “about 80%” in data set [4] (oral, 5 μmol/kg (2.5 mg/kg)). In data set [4] (intravenously and orally, 0.2 to 5 μmol/kg body weight), the “activity in bladder contraction test” value was “active and selective”. In [4] (oral 1.2 μmol/kg), the Duration of action entry is “about 6 hr”. The same compound registered a half-life of action in data set [4] (oral 1.2 μmol/kg) of roughly 3.5 h. Also, the “protection half-life against BANK-induced dyspnea” value in [5] (2 mg/kg dose, duration of action studies) was 2.43 h. Besides, the median effective dose (ED50) in [5] (intravenously 30 min prior to challenge) is 0.13 µmol/kg and 0.07 mg/kg; in data set [5] (oral administration 120 min before challenge), 0.75 µmol/kg and 0.39 mg/kg. The “Maximum efficacy (% protection)” value in [5] (intravenous, 0.3 μmol/kg) is reported as 95%; in data set [5] (oral dose of 3.0 μmol/kg) it was 100%. Besides, in data set [7] (endothelium intact, phenylephrine-contracted), the “antagonism of relaxation induced by ASMSP” value was “minor antagonism”. Also, the “selectivity, KB against NK1 receptor-mediated response versus NK2 receptor-mediated response” value in [7] (rabbit pulmonary artery) is recorded as 1,096 fold. The untoward side-effects result in data set [8] is given as “has not been found to show any indication of any untoward side-effects”. In data set [9], the Ki stood at 1.25 nM. The “rightward shift of the response curves for BANK” value in data set [10] (intravenously at 30 min before BANK) is recorded as roughly 196 fold. In addition, the “rightward shift in the BANK-induced dose-response curve” value in data set [10] (oral 120 min before BANK) is roughly 481 fold.
Take `Cc1ccc(O)c([C@H](CCN(C(C)C)C(C)C)c2ccccc2)c1` [tolterodine]: the “adverse effects (primarily dry mouth), share of the patient population” value in [1] is reported as roughly 39%.
